Reference: patent US9255110B2 (Hoffmann-La Roche Inc., priority 2010, dated 2016)
pIC50: −log10 of the molar value.

These compounds were tested against IRAK-4 (Homo sapiens (Human), UniProt Q9NWZ3) (assay: In vitro IRAK-4 kinase assay). Details: purified recombinant IRAK-4, 50 uM ATP, 33P peptide phosphorylation.
Format: biochemical
Method: Purified recombinant IRAK-4 protein was incubated with 250 uM synthetic peptide ([…]) in 30 ul of kinase buffer including (20 mM MOPS pH7.2, 25 mM beta glycerol phosphate, 5 mM EGTA, 1 mM sodium orthovanadate, 1 mM DTT, 50 uM ATP, 20 mM MgCl2, 10 uCi γ-^33P, 0.1% BSA) for the indicated time. For purified recombinant IRAK-1 protein kinase assay, 50 uM ATP was used. A 25 ul aliquot of the reaction mixture was transferred on to p81 phosphocellulose squares (Upstate Biotechnology, Lake Placid, N.Y.). The assay squares were washed three times with 0.75% phosphoric acid and once with acetone. Enzyme activity was measured by determining the bound radioactivity by liquid scintillation counting.

Sequence of IRAK-4 (Q9NWZ3 whole entry, species assumed): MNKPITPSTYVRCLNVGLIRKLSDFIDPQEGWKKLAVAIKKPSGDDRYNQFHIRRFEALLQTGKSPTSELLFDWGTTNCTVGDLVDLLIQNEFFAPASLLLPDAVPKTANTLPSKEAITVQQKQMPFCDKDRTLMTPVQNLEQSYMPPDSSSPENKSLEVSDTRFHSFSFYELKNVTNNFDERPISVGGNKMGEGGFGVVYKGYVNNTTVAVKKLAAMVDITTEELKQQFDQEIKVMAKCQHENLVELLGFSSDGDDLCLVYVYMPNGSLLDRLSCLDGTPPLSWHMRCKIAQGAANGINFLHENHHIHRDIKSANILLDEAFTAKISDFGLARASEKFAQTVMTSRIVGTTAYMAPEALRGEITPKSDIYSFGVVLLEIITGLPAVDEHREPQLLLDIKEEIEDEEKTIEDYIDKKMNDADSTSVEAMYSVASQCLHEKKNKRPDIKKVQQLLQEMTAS

Row | Structure (SMILES) | pIC50
1 | O=C(Nc1ccccc1-c1ccccc1)c1cnn2cccnc12 [Example 116, Pyrazolo[1,5-alpha]pyrimidine-3-carboxylic acid biphenyl-2-ylamide] | 5.91
2 | CC(C)(CCO)Oc1ccc(Cl)cc1NC(=O)c1csc2cncnc12 [Example 117, Thieno[3,2-d]pyrimidine-7-carboxylic acid [5-chloro-2-(3-hydroxy-1,1-dimethyl-propoxy)-phenyl]-amide] | 5.84
3 | NC1CCC(Oc2ccc(Cl)cc2NC(=O)c2csc3cncnc23)CC1 (stereo not drawn) [Example 118, Thieno[3,2-d]pyrimidine-7-carboxylic acid [2-(4-amino-cyclohexyloxy)-5-chloro-phenyl]-amide] | 5.83
4 | O=C(Nc1cc(Cl)ccc1N1CCCCCC1)c1cnn2cccnc12 [Example 119, Pyrazolo[1,5-alpha]pyrimidine-3-carboxylic acid (2-azepan 1-yl-5-chloro-phenyl)-amide] | 5.82
5 | O=C(Nc1cc(Cl)ccc1OC1CCC(O)C1)c1csc2cncnc12 (stereo not drawn) [Example 120, Thieno[3,2-d]pyrimidine-7-carboxylic acid [5-chloro-2-(3-hydroxy-cyclopentyloxy)-phenyl]-amide] | 5.82
6 | Cc1ncoc1COc1ccc(Cl)cc1NC(=O)c1cnn2cccnc12 [Example 121, Pyrazolo[1,5-alpha]pyrimidine-3-carboxylic acid [5-chloro-2-(4-methyl-oxazol-5-ylmethoxy)-phenyl]-amide] | 5.81
7 | COc1cc(C(=O)NCCO)ccc1NC(=O)c1csc2cncnc12 [Example 122, Thieno[3,2-d]pyrimidine-7-carboxylic acid [4-(2-hydroxy-ethylcarbamoyl)-2-methoxy-phenyl]-amide] | 5.79
8 | COc1ccc(Cl)cc1NC(=O)c1cnn2cccnc12 [Example 123, Pyrazolo[1,5-alpha]pyrimidine-3-carboxylic acid (5-chloro-2-methoxy-phenyl)-amide] | 5.79
9 | COCCOc1ccc(Cl)cc1NC(=O)c1cnn2cccnc12 [Example 124, Pyrazolo[1,5-alpha]pyrimidine-3-carboxylic acid [5-chloro-2-(2-methoxy-ethoxy)-phenyl]-amide] | 5.77
10 | O=C(Nc1cc(Cl)ccc1-c1cccc(O)c1)c1cnn2cccnc12 [Example 125, Pyrazolo[1,5-alpha]pyrimidine-3-carboxylic acid (4-chloro-3′-hydroxy-biphenyl-2-yl)-amide] | 5.69
11 | COc1ccc(Cl)cc1NC(=O)c1csc2cnc(NCCCO)nc12 [Example 126, 2-(3-Hydroxy-propylamino)-thieno[3,2-d]pyrimidine-7-carboxylic acid (5-chloro-2-methoxy-phenyl)-amide] | 5.69
12 | COc1ccc(Br)cc1NC(=O)c1cnn2cccnc12 [Example 127, Pyrazolo[1,5-alpha]pyrimidine-3-carboxylic acid (5-bromo-2-methoxy-phenyl)-amide] | 5.67
13 | COc1ccc(Cl)cc1NC(=O)c1csc2cncnc12 [Example 128, Thieno[3,2-d]pyrimidine-7-carboxylic acid (5-chloro-2-methoxy-phenyl)-amide] | 5.66
14 | CN(CCO)c1ccc(Cl)cc1NC(=O)c1cnn2cccnc12 [Example 129, Pyrazolo[1,5-alpha]pyrimidine-3-carboxylic acid {5-chloro-2-[(2-hydroxy-ethyl)-methyl-amino]-phenyl}-amide] | 5.66
15 | O=C(Nc1cc(Cl)ccc1Oc1ccc(O)cc1)c1cnn2cccnc12 [Example 130, Pyrazolo[1,5-alpha]pyrimidine-3-carboxylic acid [5-chloro-2-(4-hydroxy-phenoxy)-phenyl]-amide] | 5.65
16 | CC[C@@H](CO)Nc1ncc2scc(C(=O)Nc3cc(Cl)ccc3OC)c2n1 [Example 131, 2-(1-Hydroxymethyl-propylamino)-thieno[3,2-d]pyrimidine-7-carboxylic acid (5-chloro-2-methoxy-phenyl)-amide] | 5.65
17 | COc1ccc(Cl)cc1NC(=O)c1csc2cnc(NCCO)nc12 [Example 132, 2-(2-Hydroxy-ethylamino)-thieno[3,2-d]pyrimidine-7-carboxylic acid (5-chloro-2-methoxy-phenyl)-amide] | 5.65
18 | O=C(Nc1cc(Cl)ccc1OC1CCC(O)CC1)c1cnn2cc(CO)cnc12 (stereo not drawn) [Example 133, 6-Hydroxymethyl-pyrazolo[1,5-alpha]pyrimidine-3-carboxylic acid [5-chloro-2-(4-hydroxy-cyclohexyloxy)-phenyl]-amide] | 5.65
19 | COc1cc(C(N)=O)ccc1NC(=O)c1cnn2cccnc12 [Example 134, Pyrazolo[1,5-alpha]pyrimidine-3-carboxylic acid (4-carbamoyl-2-methoxy-phenyl)-amide] | 5.65
20 | CC(C)COc1ccc(Cl)cc1NC(=O)c1cnn2cccnc12 [Example 135, Pyrazolo[1,5-alpha]pyrimidine-3-carboxylic acid (5-chloro-2-isobutoxy-phenyl)-amide] | 5.64
21 | O=C(Nc1nc2ccccc2n1CCCO)c1csc2cncnc12 [Example 136, Thieno[3,2-d]pyrimidine-7-carboxylic acid [1-(3-hydroxy-propyl)-1H-benzoimidazol-2-yl]-amide] | 5.64
22 | O=C(Nc1cc(Cl)ccc1OC[C@@H](O)CO)c1cnn2cccnc12 [Example 137, Pyrazolo[1,5-alpha]pyrimidine-3-carboxylic acid [5-chloro-2-(2,3-dihydroxy-propoxy)-phenyl]-amide] | 5.64
23 | COCCCOc1ccc(Cl)cc1NC(=O)c1cnn2cccnc12 [Example 138, Pyrazolo[1,5-alpha]pyrimidine-3-carboxylic acid [5-chloro-2-(3-methoxy-propoxy)-phenyl]-amide] | 5.62
24 | O=C(Nc1cc(Cl)ccc1OCCCO)c1csc2cncnc12 [Example 139, Thieno[3,2-d]pyrimidine-7-carboxylic acid [5-chloro-2-(3-hydroxy-propoxy)-phenyl]-amide] | 5.61
25 | O=C(Nc1cc(Cl)ccc1OCc1cccc(O)c1)c1cnn2cccnc12 [Example 141, Pyrazolo[1,5-alpha]pyrimidine-3-carboxylic acid [5-chloro-2-(3-hydroxy-benzyloxy)-phenyl]-amide] | 5.58
26 | COc1cc(OC)c(NC(=O)c2cnn3cccnc23)cc1Cl [Example 142, Pyrazolo[1,5-alpha]pyrimidine-3-carboxylic acid (5-chloro-2,4-dimethoxy-phenyl)-amide] | 5.56
27 | C=Cc1ccc(OC)c(NC(=O)c2cnn3cccnc23)c1 [Example 143, Pyrazolo[1,5-alpha]pyrimidine-3-carboxylic acid (2-methoxy-5-vinyl-phenyl)-amide] | 5.56
28 | O=C(Nc1cccc(NCCCO)c1N1CCCCC1)c1cnn2cccnc12 [Example 144, Pyrazolo[1,5-alpha]pyrimidine-3-carboxylic acid [3-(3-hydroxy-propylamino)-2-piperidin-1-yl-phenyl]-amide] | 5.55
29 | O=C(Nc1cc(Cl)ccc1CCCCO)c1cnn2cccnc12 [Example 145, Pyrazolo[1,5-alpha]pyrimidine-3-carboxylic acid [5-chloro-2-(4-hydroxy-butyl)-phenyl]-amide] | 5.53
30 | COc1cc(C(=O)NCCO)ccc1NC(=O)c1cnn2cccnc12 [Example 146, Pyrazolo[1,5-alpha]pyrimidine-3-carboxylic acid [4-(2-hydroxy-ethylcarbamoyl)-2-methoxy-phenyl]-amide] | 5.53
